Like-named read-outs stand apart in the source and are kept apart here.
What was measured:
HIV-1Laï = experiment: microbe, parasite or virus in culture; format: cell-based; conditions: for EC50: 24 h infection, read-out: EC50; for SI (CC50/EC50): selectivity index
[1] = biological target: IN-GCN2 interaction (6xHis-IN / GST-GCN2) (UniProt P04585+Q9P2K8); experiment: biochemical; format: binding, HIV-1 IN; human GCN2; conditions: for IC50: IC50, inhibition of IN-GCN2 interaction; for IN-GCN2 interaction (%): screen, single dose 100 µM, single replicate, residual AlphaLISA signal normalized to DMSO control
[2] = Cytotoxicity (CellTiter 96 AQueous); format: cell-based; conditions: human
[3] = Human immunodeficiency virus 1, MAGI, 24 h
[4] = SAR study, fresh dilutions from powder, at least three independent experiments
[5] = P4 MAGI CCR5+ cells, 24 h, read-out: CC50

IN-GCN2 interaction (6xHis-IN / GST-GCN2), sequence (Q9P2K8 192-1024, other chains not shown): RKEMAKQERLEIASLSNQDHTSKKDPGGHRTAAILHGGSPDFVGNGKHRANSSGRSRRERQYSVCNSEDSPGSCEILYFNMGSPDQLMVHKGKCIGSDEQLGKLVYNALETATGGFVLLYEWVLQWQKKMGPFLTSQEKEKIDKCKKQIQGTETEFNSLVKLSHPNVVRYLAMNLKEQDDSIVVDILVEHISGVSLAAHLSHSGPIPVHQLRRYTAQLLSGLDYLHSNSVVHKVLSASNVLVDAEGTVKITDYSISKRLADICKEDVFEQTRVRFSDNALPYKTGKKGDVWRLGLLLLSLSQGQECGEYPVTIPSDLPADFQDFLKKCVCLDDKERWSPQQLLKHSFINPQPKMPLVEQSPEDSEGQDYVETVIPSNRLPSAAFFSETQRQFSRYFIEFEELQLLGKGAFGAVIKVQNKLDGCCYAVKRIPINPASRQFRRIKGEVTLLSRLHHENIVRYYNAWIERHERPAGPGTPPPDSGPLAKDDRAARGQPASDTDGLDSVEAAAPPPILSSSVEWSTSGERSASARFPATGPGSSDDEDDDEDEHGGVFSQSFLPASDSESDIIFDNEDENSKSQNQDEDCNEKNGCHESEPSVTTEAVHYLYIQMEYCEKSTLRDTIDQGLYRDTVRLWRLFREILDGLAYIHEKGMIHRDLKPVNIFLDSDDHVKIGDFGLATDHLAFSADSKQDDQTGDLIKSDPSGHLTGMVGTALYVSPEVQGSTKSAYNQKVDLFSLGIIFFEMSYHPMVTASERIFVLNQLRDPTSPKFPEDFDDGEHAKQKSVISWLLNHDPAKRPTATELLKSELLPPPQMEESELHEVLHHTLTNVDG

Work on O=C1c2c(O)ccc(O)c2C(=O)c2c(NCCCO)ccc(NCCCO)c21 [Compound 2l] yielded an EC50 (HIV-1Laï; [3]) of over 5 µM, an IC50 [1, 4] of 13 µM and a CC50 at 24 h [2, 5] of over 5 µM.
For N#CCCNc1ccc(NCCC#N)c2c1C(=O)c1c(O)ccc(O)c1C2=O [Compound 2m], the EC50 (HIV-1Laï; [3]) was over 5 µM, the IC50 [1, 4] was 16 µM and the CC50 at 24 h [2, 5] was over 5 µM.
In the case of Clc1ccc2nc3ccccc3cc2c1 [Compound 2n], the IC50 [1, 4] is reported as over 100 µM and the CC50 at 24 h [2, 5] is reported as over 5 µM.
Molecule COc1cc2c(cc1OC)c1c(OC)c(OC)cc3c1c1c2sc(=S)n1CC3 [Compound 3a] has an IC50 [1, 4] of 24 µM and a CC50 at 24 h [2, 5] of over 5 µM.
With COc1cc2c(c(OC)c1OC)CC1c3c(cc4c(c3-2)OCO4)CCN1C (stereo not drawn) [Compound 3c] the IC50 [1, 4] was 54 µM, the “fold decrease in activity compared to NSC785155” value ([1]; IC50 ratio) was 10 fold and the CC50 at 24 h [2] was over 5 µM.
With CCOC(=O)N1CCc2cc(OC)c(OC)c3c2c1cc1cc(OC)c(OC)cc13 [Compound 3d] the “effect on HIV replication, in words” value (HIV-1Laï) was “decrease in viral replication”, the EC50 (HIV-1Laï) was 1.02 µM and the EC50 (HIV-1Laï; [3]) was 1 µM. The “SI (CC50/EC50)” value (HIV-1Laï) was over 4.9, the IC50 [1, 4] was 71 µM and the CC50 at 24 h [2, 5] was over 5 µM.
Work on COc1cc2c(cc1OC)-c1c3c(cc4c1[C@H](C2)N(C)CC4)OCO3 [Compound 3e] yielded an EC50 (HIV-1Laï; [3]) of over 5 µM, an IC50 [1, 4] of 73 µM and a CC50 at 24 h [2] of over 5 µM.
For S=c1[nH]c2ccccc2nc1NCc1ccccc1 [Compound 3f], the EC50 (HIV-1Laï) was 2.37 µM, the EC50 (HIV-1Laï; [3]) was 2.4 µM and the “SI (CC50/EC50)” value (HIV-1Laï) was over 2.1. It also gave an IC50 [1, 4] of 83 µM and a CC50 at 24 h [2, 5] of over 5 µM.
For COc1cc2c(cc1OC)-c1c3c(cc4c1C(C2)N(C)CC4)OCO3 (stereo not drawn) [Compound 3g], the “viral replication, maximum, relative to DMSO control” value (HIV-1Laï; dose-dependent increase (pro-viral effect)) was “up to 150%” and the IC50 [1, 4] was 92 µM.
Work on COc1ccc2c(c1)CC1c3c(cc4c(c3-2)OCO4)CCN1C (stereo not drawn) [Compound 3h] yielded an IC50 [1, 4] of over 100 µM and a CC50 ([2]; 24 h, read-out: CC50) of over 5 µM.
COc1cc2c3c(c1)-c1c(ccc(OC)c1O)CC3N(C)CC2 (stereo not drawn) [Compound 3i] gave an EC50 (HIV-1Laï; [3]) of over 5 µM, an IC50 [1, 4] of over 100 µM and a CC50 at 24 h [2] of over 5 µM.
For COc1ccc2c(c1OC)-c1c3c(cc4c1C(C2)N(C)CC4)OCO3 (stereo not drawn) [Compound 3j], the IC50 [1, 4] was over 100 µM and the CC50 at 24 h [2] was over 5 µM.
With COc1cc2c(cc1OC)-c1c(OC)c(OC)cc3c1C(C2)N(C)CC3 (stereo not drawn) [Compound 3k] the IC50 [1, 4] was over 100 µM, the “effect on IN-GCN2 interaction in dose-response, in words” value ([1]; dose-response assessment) was “inactive” and the “IN-GCN2 interaction (%)” value [1] was 124.35%. For the same molecule, the CC50 ([2]; 24 h, read-out: CC50) was over 5 µM.
In the case of COc1cc2c3c(c1O)C1(C=CC(=O)C=C1)CC3N(C)CC2 (stereo not drawn) [Compound 3l], the IC50 [1, 4] is reported as over 100 µM and the CC50 at 24 h [2, 5] is reported as over 5 µM.
In the case of COc1cc2ccc3c(c2cc1OC)N(C)C(OC)c1cc2c(cc1-3)OCO2 (stereo not drawn) [Compound 3m], the IC50 [1, 4] is reported as over 100 µM and the CC50 ([2]; 24 h, read-out: CC50) is reported as over 5 µM.
With CCCCCC1=C/C(=C/c2[nH]c(-c3ccc[nH]3)cc2OC)N=C1C [NSC47147, prodigiosin] the “nontoxic concentrations at which a proviral effect was seen” value (HIV-1Laï; Figure S5) was under 200 nM, the IC50 ([1]; plated compounds of the screen, dose-response (Figure 1B), n = 9) was 0.88 µM and the “IN-GCN2 interaction (%)” value [1] was 6.31%. For the same molecule, the CC50 at 24 h ([2]; 24 h, read-out: CC50) was 1.96 µM.
With COc1c(O)ccc2c1-c1c3c(cc4c1[C@H](C2)N(C)CC4)OCO3 [NSC785181] the “IN-GCN2 interaction (%)” value ([1]; listed as 785181) was 54.07%.
With COc1c(O)ccc2c1-c1c3c(cc4c1[C@H](C2)N(C)CC4)OCO3 [NSC785182] the “IN-GCN2 interaction (%)” value ([1]; listed as 785182) was 74.81%.
In the case of COc1cc2c(cc1O)[C@@H](Cc1ccc(Oc3cc(C[C@H]4c5cc(O)c(OC)cc5CCN4C)ccc3OC)cc1)N(C)CC2 [NSC785183], the “IN-GCN2 interaction (%)” value [1] is reported as 47.22%.
With COc1cc2c(cc1O)[C@@H](Cc1ccc(Oc3cc(C[C@H]4c5cc(O)c(OC)cc5CCN4C)ccc3O)cc1)N(C)CC2 [NSC785184] the “IN-GCN2 interaction (%)” value [1] was 46.86%.
With CCOc1cc2c(cc1OC)CCN[C@H]2Cc1ccc(O)cc1 [NSC785185] the “IN-GCN2 interaction (%)” value [1] was 75.32%.
With COc1cc2c3c(c1O)-c1cc(O)ccc1CC3N(C)CC2 (stereo not drawn) [NSC785186] the “IN-GCN2 interaction (%)” value [1] was 59.88%.
With COc1ccc2c(c1OC)-c1c(OC)c(OC)cc3c1[C@H](C2)NCC3 [NSC785187] the “IN-GCN2 interaction (%)” value [1] was 70.21%.
With COc1ccc2c(c1O)-c1c3c(cc4c1[C@H](C2)N(C)CC4)OCO3 [NSC785188] the “IN-GCN2 interaction (%)” value [1] was 77.54%.
In the case of COc1cc2c(cc1O)C[C@H]1c3c(cc(OC)c(OC)c3-2)CCN1C [NSC785189], the “IN-GCN2 interaction (%)” value [1] is reported as 31.39%.

From publication PMC12390684 (Viruses, 2025)
